IC50 data for 29 molecules are collected here from patent US7704995B2 (Exelixis, Inc., priority 2003, dated 2010).

The first test deals with T1, Chk1 (Homo sapiens, UniProt O14757).
T1 construct: purchased Upstate Biotechnology
T1 sequence (O14757 1-476): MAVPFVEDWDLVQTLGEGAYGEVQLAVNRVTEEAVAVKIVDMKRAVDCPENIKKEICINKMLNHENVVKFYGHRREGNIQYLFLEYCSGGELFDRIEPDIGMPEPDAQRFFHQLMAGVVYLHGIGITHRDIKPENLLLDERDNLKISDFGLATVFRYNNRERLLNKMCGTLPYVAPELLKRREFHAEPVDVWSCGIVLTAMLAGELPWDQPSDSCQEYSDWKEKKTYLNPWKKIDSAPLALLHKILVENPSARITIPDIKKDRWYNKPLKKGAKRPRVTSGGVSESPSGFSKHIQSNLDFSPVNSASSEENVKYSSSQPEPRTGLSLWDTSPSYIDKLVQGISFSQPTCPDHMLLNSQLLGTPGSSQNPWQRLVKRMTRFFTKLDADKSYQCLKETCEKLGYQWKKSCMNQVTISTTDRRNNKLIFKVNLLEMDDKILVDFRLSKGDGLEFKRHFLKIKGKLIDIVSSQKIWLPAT
Kind of test: Chk1 kinase assay: incorporation of γ-33P ATP into immobilized myelin basic protein. The format is biochemical. The note with it: Table 11, Chk1 only; class symbols A-D; read-out: Chk1 IC50. The method in brief: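 Incorporation of γ-33P into myelin basic protein coated on plates was scintillation-counted after 1 h at room temperature, duplicate points. Unlabeled ATP was 10 μM with 10 nM Chk1, 30 μM with 20 nM Chk2; buffer Hepes pH 7.6, MgCl2, DTT, 1% DMSO. Output IC50, optionally converted to Ki.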
For `Nc1ncc(-c2cccc(CN[C@H]3CCc4ccccc43)c2)nc1-c1nc(C2CCCNC2)cs1` (stereo partly drawn) [Example 824, 5-(3-{[(1S)-2,3-dihydro-1H-inden-1-ylamino]methyl}phenyl)-3-(4-piperidin-3-yl-1,3-thiazol-2-yl)pyrazin-2-amine], the IC50 – broadly, the concentration at which inhibition is half-maximal – was not below 10000 nM.
The same measure, in the same setting: for `Nc1ncc(-c2cccc(CNC(=O)c3ccc(-c4ccc([N+](=O)[O-])cc4)o3)c2)nc1C(=O)N[C@H]1CCCNC1` [Example 986, 3-Amino-6-[3-({[5-(4-nitro-phenyl)-furan-2-carbonyl]-amino}-methyl)-phenyl]-pyrazine-2-carboxylic acid (3S)-piperidin-3-ylamide] the value was less than 50 nM.
Still for that read-out and setting: for `Nc1ncc(-c2cccc(CNC(=O)Nc3ccc(Cl)cc3)c2)nc1C(=O)N[C@H]1CCCNC1` [Example 971, 3-amino-6-{3-[({[(4-chlorophenyl)amino]carbonyl}amino)methyl]phenyl}-N-[(3S)-piperidin-3-yl]pyrazine-2-carboxamide] the value was less than 50 nM.
Consider `Cc1cc(CNC(=O)c2cccc(-c3cnc(N)c(C(=O)N[C@H]4CCCNC4)n3)c2)ccc1F` [Example 1029, 3-amino-6-[3-({[(4-fluoro-3-methylphenyl)methyl]amino}carbonyl)phenyl]-N-[(3S)-piperidin-3-yl]pyrazine-2-carboxamide], for which the IC50 was less than 50 nM.
Take `Nc1ncc(-c2cccc(C(=O)NC[C@@H]3CCNC3)c2)nc1C(=O)N[C@H]1CCCNC1` [Example 875, 3-amino-N-[(3S)-piperidin-3-yl]-6-[3-({[(3R)-pyrrolidin-3-ylmethyl]amino}carbonyl)phenyl]pyrazine-2-carboxamide]: the concentration for half-maximal inhibition (IC50) is less than 50 nM.
Still for that read-out and setting: for `Nc1ncc(-c2cccc(CN[C@@H]3c4ccccc4C[C@@H]3O)c2)nc1C(=O)N[C@H]1CCNC1` [Example 806, 3-amino-6-[3-({[(1R,2S)-2-hydroxy-2,3-dihydro-1H-inden-1-yl]amino}methyl)phenyl]-N-[(3S)-pyrrolidin-3-yl]pyrazine-2-carboxamide] the value was less than 50 nM; for `Nc1ncc(-c2cccc(OCCN3CCOCC3)c2)nc1C(=O)N[C@H]1CCCNC1` [Example 960, 3-amino-6-{3-[(2-morpholin-4-ylethyl)oxy]phenyl}-N-[(3S)-piperidin-3-yl]pyrazine-2-carboxamide], 50 to 1000 nM; for `Nc1ncc(-c2cccc(C(=O)N[C@@H]3c4ccccc4C[C@@H]3O)c2)nc1C(=O)N[C@H]1CCCNC1` [Example 807, 3-amino-6-[3-({[(1R,2S)-2-hydroxy-2,3-dihydro-1H-inden-1-yl]amino}carbonyl)phenyl]-N-[(3S)-piperidin-3-yl]pyrazine-2-carboxamide], less than 50 nM.
Same read-out and setting: to `Nc1ncc(-c2cccc(C(=O)NCc3ccc(-c4ccccc4)cc3)c2)nc1C(=O)N[C@H]1CCCNC1` [Example 844, 3-amino-6-(3-{[(biphenyl-4-ylmethyl)amino]carbonyl}phenyl)-N-[(3S)-piperidin-3-yl]pyrazine-2-carboxamide] belongs less than 50 nM.

Staying with this test, now noted: Table 11; Chk1 only; read-out: Chk1 IC50.
As for `CC(C)(C)OC(=O)N1CC[C@H](NC(=O)c2nc(-c3cccc(C(=O)NCc4ccccn4)c3)cnc2N)C1` [Example 757, 1,1-dimethylethyl (3S)-3-({[3-amino-6-(3-{[(pyridin-2-ylmethyl)amino]carbonyl}phenyl)pyrazin-2-yl]carbonyl}amino)pyrrolidine-1-carboxylate], the half-inhibitory concentration (IC50) lay within 1000 to 10000 nM.
As to `CN1CC[C@H](NC(=O)c2nc(-c3cccc(C(=O)N[C@H]4CCc5ccccc54)c3)cnc2N)C1` [Example 804, 3-amino-6-(3-{[(1S)-2,3-dihydro-1H-inden-1-ylamino]carbonyl}phenyl)-N-[(3S)-1-methylpyrrolidin-3-yl]pyrazine-2-carboxamide], the IC50 is 50 to 1000 nM.
Regarding `COC[C@H]1CCCN1/N=C(\C)c1nc(-c2cccc(C(=O)NCc3ccccc3)c2)cnc1N` [Example 673, 3-[5-amino-6-((1E)-N-{(2R)-2-[(methyloxy)methyl]pyrrolidin-1-yl}ethanimidoyl)pyrazin-2-yl]-N-(phenylmethyl)benzamide], the concentration for half-maximal inhibition (IC50) lay in the range of 50 to 1000 nM.
The same measure, in the same setting: to `N#Cc1ccc(N/N=C/c2nc(-c3cccc(C(=O)NCc4ccccc4)c3)cnc2N)cc1` [Example 679, 3-(5-amino-6-{(E)-[(4-cyanophenyl)hydrazono]methyl}pyrazin-2-yl)-N-(phenylmethyl)benzamide] belongs not below 10000 nM; to `N=C(NN1CCOCC1)c1nc(-c2cccc(C(=O)NCc3ccccc3)c2)cnc1N` [Example 620, 3-{5-amino-6-[imino(morpholin-4-ylamino)methyl]pyrazin-2-yl}-N-(phenylmethyl)benzamide], 1000 to 10000 nM.
Same read-out and setting: for `CNC(=O)c1nc(-c2cccc(CNC3CCc4cc(F)ccc43)c2)cnc1N` (centres unmarked) [Example 464, 3-amino-6-(3-{[(5-fluoro-2,3-dihydro-1H-inden-1-yl)amino]methyl}phenyl)-N-methylpyrazine-2-carboxamide] the value was 50 to 1000 nM.
The same measure, in the same setting: for `Cn1nc(-c2nc(-c3cccc(C(=O)N[C@H]4CCc5ccccc54)c3)cnc2N)nc1[C@@H]1CCCN(C(=O)OCc2ccccc2)C1` [Example 754, phenylmethyl (3R)-3-{3-[3-amino-6-(3-{[(1S)-2,3-dihydro-1H-inden-1-ylamino]carbonyl}phenyl)pyrazin-2-yl]-1-methyl-1H-1,2,4-triazol-5-yl}piperidine-1-carboxylate] the value was 1000 to 10000 nM; for `CNC(=O)c1nc(-c2cccc(CNC3CCc4cc(-c5cccs5)ccc43)c2)cnc1N` (centres unmarked) [Example 478, 3-amino-N-methyl-6-[3-({[5-(2-thienyl)-2,3-dihydro-1H-inden-1-yl]amino}methyl)phenyl]pyrazine-2-carboxamide], less than 50 nM; for `CN1CCCC(c2n[nH]c(-c3nc(-c4cccc(CN[C@H]5CCc6ccccc65)c4)cnc3N)n2)C1` (stereo partly drawn) [Example 737, 5-(3-{[(1S)-2,3-dihydro-1H-inden-1-ylamino]methyl}phenyl)-3-[3-(1-methylpiperidin-3-yl)-1H-1,2,4-triazol-5-yl]pyrazin-2-amine], 50 to 1000 nM.
Consider `Cc1nccc(-c2nc(-c3cccc(C(=O)NCc4ccccc4)c3)cnc2N)n1` [Example 656, 3-[5-amino-6-(2-methylpyrimidin-4-yl)pyrazin-2-yl]-N-(phenylmethyl)benzamide], for which the IC50 is 1000 to 10000 nM.
On to `Nc1ncc(-c2cccc(C(=O)N[C@@H]3c4ccccc4C[C@@H]3O)c2)nc1C(=O)NC[C@H]1CCNC1` [Example 787, 3-amino-6-[3-({[(1R,2S)-2-hydroxy-2,3-dihydro-1H-inden-1-yl]amino}carbonyl)phenyl]-N-[(3S)-pyrrolidin-3-ylmethyl]pyrazine-2-carboxamide], for which the IC50 was less than 50 nM.
`Nc1ncc(-c2cccc(C(=O)NCc3ccccc3)c2)nc1-c1nc(-c2ccccc2)n(-c2ccccc2)n1` [Example 670, 3-[5-amino-6-(1,5-diphenyl-1H-1,2,4-triazol-3-yl)pyrazin-2-yl]-N-(phenylmethyl)benzamide]: the IC50 was not below 10000 nM.

Still in this test, the particulars now being: read-out: Chk1 IC50.
Consider `CNC(=O)c1nc(-c2cccc(C(=O)NCc3cccc(Br)c3)c2)cnc1N` [Example 239, 3-amino-6-[3-({[(3-bromophenyl)methyl]amino}carbonyl)phenyl]-N-methylpyrazine-2-carboxamide], for which the IC50 fell in the range of 50 to 1000 nM.
On to `CNC(=O)c1nc(-c2cccc(C(=O)NCc3ccc(C)c(F)c3)c2)cnc1N` [Example 295, 3-amino-6-[3-({[(3-fluoro-4-methylphenyl)methyl]amino}carbonyl)phenyl]-N-methylpyrazine-2-carboxamide], for which the IC50 was 50 to 1000 nM.
On to `CNC(=O)c1nc(-c2cccc(C(=O)NCc3ccc(OC)cc3OC)c2)cnc1N` [Example 115, 3-amino-6-{3-[({[2,4-bis(methyloxy)phenyl]methyl}amino)carbonyl]phenyl}-N-methylpyrazine-2-carboxamide], for which the IC50 lay in the range of 50 to 1000 nM.
`NC(=O)c1nc(-c2ccc3ccccc3c2)cnc1N` [Example 27, 3-amino-6-naphthalen-2-ylpyrazine-2-carboxamide]: the IC50 is not below 10000 nM.
For the molecule `CNC(=O)c1nc(-c2cccc(C(=O)NCc3cc(C)cc(C)c3)c2)cnc1N` [Example 212, 3-amino-6-[3-({[(3,5-dimethylphenyl)methyl]amino}carbonyl)phenyl]-N-methylpyrazine-2-carboxamide], the half-inhibitory concentration (IC50) fell in the range of 50 to 1000 nM.
Still for that read-out and setting: for `CNC(=O)c1nc(-c2cccc(C(=O)NCc3cc(F)c(F)c(F)c3)c2)cnc1N` [Example 316, 3-amino-N-methyl-6-[3-({[(3,4,5-trifluorophenyl)methyl]amino}carbonyl)phenyl]pyrazine-2-carboxamide] the value was 50 to 1000 nM; for `CNC(=O)c1nc(-c2ccc(C(=O)NCc3ccc(C)cc3)cc2)cnc1N` [Example 153, 3-amino-N-methyl-6-[4-({[(4-methylphenyl)methyl]amino}carbonyl)phenyl]pyrazine-2-carboxamide], 50 to 1000 nM; for `CNC(=O)c1nc(-c2cccc(CNCc3cccc(C(F)(F)F)c3)c2)cnc1N` [Example 426, 3-amino-N-methyl-6-{3-[({[3-(trifluoromethyl)phenyl]methyl}amino)methyl]phenyl}pyrazine-2-carboxamide], 50 to 1000 nM.
